Data from article PMC5400565, “Real-time near-infrared fluorescence imaging using cRGD-ZW800-1 for intraoperative visualization of multiple cancer types” (Oncotarget, 2017).

Legend:
Serotonin 5-HT2A = biological target: T1, Serotonin 5-HT2A (Homo sapiens, UniProt P28223); assay: Off-target screening (Eurofins Cerep), 5-HT2A; type: binding
T1 construct: Eurofins Cerep SA (contract screening)

MCF-7 breast tumors = assay: NIR fluorescence imaging, MCF-7 breast tumors; type: in vivo, mice; settings: 10 nmol, Pearl
Procedure: (§1) To induce subcutaneous tumors, colorectal cancer cells (HT-29) were injected at 4 sites on the back (500,000 cells per spot). Subsequently, these colorectal tumor cells were transplanted on the colon of other mice, as described by Tseng et al.. Approximately 500,000 pancreatic tumor cells (BxPC-3) were injected into the pancreas, as previously described by Kim et al.. Approximately 40,000 oral tumor cells (OSC-19) were injected in the tongue, as previously described by van Driel et al.. Approximately 500,000 breast tumor cells (MCF-7) were injected in both sides of the mammary fat pad to induce breast cancer tumors.
All animals were imaged using a Pearl® imager (LI-COR, Lincoln, NE) and an original FLARE® prototype. Animals with HT-29 tumors were imaged at 4 and 24 h post injection; animals with BxPC-3 and OSC-19 tumors at 4 h only. Animals with MCF-7 tumors were imaged at 0.5, 1, 2, 4, 6, 8, 24 and 48 h post injection. The specific and control images were normalized and regions of interest (ROIs) were selected using associated software. TBRs were calculated by dividing the tumor signal by the background signal. Based on our experience a TBR ≥ 2 is sufficient to discriminate between tumor and surrounding tissue.
Mice bearing orthotopic OSC-19 tumors (n = 2) were administrated with 10 nmol cRGD-ZW800-1 and imaged at 4 h. Mice bearing orthotopic MCF-7 tumors (n = 2) were injected with 10 nmol cRGD-ZW800-1 and imaged at 0.5, 1, 2, 4, 6, 8, 24, and 48 h post injection. One mouse with 2 MCF-7 tumors was administered with 10 nmol cRGD-ZW800-1 and imaged at 4 h post injection while its skin was partially removed. In vivo TBRs were calculated by dividing the mean fluorescence signals of tumors by the mean of surrounding tissue. Ex vivo organ-to-tumor ratios were calculated by dividing the fluorescence intensity of the organ by that of the tumor.

[1] = biological target: T2, Nicotinic channels N neuronal α4β2 (Homo sapiens, UniProt P17787+P43681); assay: Off-target screening (Eurofins Cerep), N neuronal α4β2; type: binding
T2 construct: Eurofins Cerep SA (contract screen)

HT-29 cells = assay: In vitro competition with unlabeled cRGD, HT-29; type: cell-based, human; settings: 500 nM cRGD-ZW800-1 + 500 nM unlabeled cRGD (1:1), 37°C, 2 h, vs cells without unlabeled cRGD, triplicate
Procedure: For in vitro competition, U-87 MG (αvβ3 and αvβ5 positive, αvβ6 negative) and HT-29 (αvβ3 negative, αvβ5 and αvβ6 positive) cells were plated in a 96-well plate at a density of ∼40,000 and ∼60,000 cells per well, respectively. Subsequently, 500 nM of cRGD-ZW800-1 was simultaneously added to the cells and incubated at 37°C for 2 h. At the same time, half of the cells were also incubated with 500 nM unlabeled (“cold”) cRGD.
Both the cells in the binding and the competition experiment were then washed twice and imaged with the Odyssey NIR scanner (LI-COR Biosciences, Lincoln, Nebraska: focus offset 3 mm; 800-nm channel). Next, cells were permeabilized with a 40/60 mixture of acetone and methanol followed by a washing step and a 5 min incubation with ToPro3 (1/2000, Invitrogen), a far red fluorescent dye (642/661nm). The wells were then washed and again imaged with the Odyssey scanner (focus offset 3 mm; 700-nm channel) to quantify the number of cells in each well. The experiments were performed in triplicate.

[2] = biological target: T3, Cholecystokinin CCK1 (CCKA) (Homo sapiens, UniProt P32238); assay: Off-target screening (Eurofins Cerep), CCK1 (CCKA); type: binding
T3 construct: Eurofins Cerep SA (contract screening)

PDE3A = biological target: T4, PDE3A (Homo sapiens, UniProt Q14432); assay: Off-target screening (Eurofins Cerep), PDE3A; type: biochemical
T4 construct: Eurofins Cerep SA (contract screen)

Opioid µ (MOP) = biological target: T5, Opioid µ (MOP) (Homo sapiens, UniProt P35372); assay: Off-target screening (Eurofins Cerep), µ (MOP); type: binding
T5 construct: Eurofins Cerep SA (contract screening)

Opioid δ (DOP) = biological target: T6, Opioid δ (DOP) (Homo sapiens, UniProt P41143); assay: Off-target screening (Eurofins Cerep), δ (DOP); type: binding
T6 construct: Eurofins Cerep SA (contract screening)

OSC-19 oral tumors = assay: NIR fluorescence imaging, OSC-19 oral tumors; type: in vivo, mice; settings: orthotopic OSC-19 tongue model; 10 nmol; 4 h; Pearl; n = 2; mean ± SD
Procedure: as §1
All animals were imaged using a Pearl® imager (LI-COR, Lincoln, NE) and an original FLARE® prototype. Animals with HT-29 tumors were imaged at 4 and 24 h post injection; animals with BxPC-3 and OSC-19 tumors at 4 h only. Animals with MCF-7 tumors were imaged at 0.5, 1, 2, 4, 6, 8, 24 and 48 h post injection. […] TBRs were calculated by dividing the tumor signal by the background signal. […]
Mice bearing orthotopic OSC-19 tumors (n = 2) were administrated with 10 nmol cRGD-ZW800-1 and imaged at 4 h. […] In vivo TBRs were calculated by dividing the mean fluorescence signals of tumors by the mean of surrounding tissue. Ex vivo organ-to-tumor ratios were calculated by dividing the fluorescence intensity of the organ by that of the tumor.

Serotonin 5-HT1A = biological target: T7, Serotonin 5-HT1A (Homo sapiens, UniProt P08908); assay: Off-target screening (Eurofins Cerep), 5-HT1A; type: binding
T7 construct: Eurofins Cerep SA (contract screening)

Histamine H1 = biological target: T8, Histamine H1 (Homo sapiens, UniProt P35367); assay: biochemical; type: binding
T8 construct: Eurofins Cerep SA (contract screening)

Adrenergic β2 = biological target: T9, Adrenergic β2 (Homo sapiens, UniProt P07550); assay: Off-target screening (Eurofins Cerep), β2; type: binding
T9 construct: Eurofins Cerep SA (contract screening)

[3] = 10 μM cRGD-ZW800-1, format H, Ag, performed twice, read-out: % Inhibition of Control Specific Binding
[4] = 10 μM, mean of 2, read-out: % of Control Specific Binding Mean

T3 sequence (P32238 whole entry): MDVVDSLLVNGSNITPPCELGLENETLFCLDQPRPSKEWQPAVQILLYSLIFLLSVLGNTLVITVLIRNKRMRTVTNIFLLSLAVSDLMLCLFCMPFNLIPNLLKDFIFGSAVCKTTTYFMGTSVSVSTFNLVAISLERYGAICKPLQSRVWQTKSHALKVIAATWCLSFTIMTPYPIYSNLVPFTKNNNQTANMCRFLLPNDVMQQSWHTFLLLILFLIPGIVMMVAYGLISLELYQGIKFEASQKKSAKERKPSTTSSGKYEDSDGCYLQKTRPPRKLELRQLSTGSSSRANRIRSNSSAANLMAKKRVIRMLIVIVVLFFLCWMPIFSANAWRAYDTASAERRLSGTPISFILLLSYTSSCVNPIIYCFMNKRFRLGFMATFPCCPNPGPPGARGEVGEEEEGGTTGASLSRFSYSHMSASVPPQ
T2 sequence (P43681 29-627 limits assumed): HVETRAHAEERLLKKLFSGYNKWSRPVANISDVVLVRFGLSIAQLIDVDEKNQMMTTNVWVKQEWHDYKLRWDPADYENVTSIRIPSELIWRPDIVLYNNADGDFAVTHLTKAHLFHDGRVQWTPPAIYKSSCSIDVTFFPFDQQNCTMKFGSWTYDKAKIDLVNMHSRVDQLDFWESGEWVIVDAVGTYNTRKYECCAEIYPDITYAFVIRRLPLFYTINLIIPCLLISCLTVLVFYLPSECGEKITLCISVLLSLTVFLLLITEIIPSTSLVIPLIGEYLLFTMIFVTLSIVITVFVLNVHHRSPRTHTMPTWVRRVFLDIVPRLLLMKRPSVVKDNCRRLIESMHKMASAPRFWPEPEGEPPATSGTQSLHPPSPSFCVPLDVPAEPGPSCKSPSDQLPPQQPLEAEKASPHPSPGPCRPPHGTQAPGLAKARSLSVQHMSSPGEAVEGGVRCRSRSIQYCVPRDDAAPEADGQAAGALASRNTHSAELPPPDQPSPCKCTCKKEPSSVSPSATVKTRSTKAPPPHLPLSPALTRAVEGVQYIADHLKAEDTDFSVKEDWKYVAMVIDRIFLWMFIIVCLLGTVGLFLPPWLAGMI
T2 sequence (P17787 26-502): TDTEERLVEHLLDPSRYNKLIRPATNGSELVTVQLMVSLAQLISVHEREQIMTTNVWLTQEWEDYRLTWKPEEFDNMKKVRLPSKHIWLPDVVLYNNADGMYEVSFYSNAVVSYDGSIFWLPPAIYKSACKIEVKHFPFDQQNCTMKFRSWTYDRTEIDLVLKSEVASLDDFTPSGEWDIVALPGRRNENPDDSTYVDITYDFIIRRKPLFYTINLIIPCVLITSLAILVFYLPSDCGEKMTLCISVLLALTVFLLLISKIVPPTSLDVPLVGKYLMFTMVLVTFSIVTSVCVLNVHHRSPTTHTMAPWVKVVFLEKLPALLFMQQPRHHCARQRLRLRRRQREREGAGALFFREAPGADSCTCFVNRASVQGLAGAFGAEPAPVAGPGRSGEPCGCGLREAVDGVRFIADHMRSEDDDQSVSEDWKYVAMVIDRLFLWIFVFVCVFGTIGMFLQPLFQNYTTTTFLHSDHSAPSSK
T5 sequence (P35372 whole entry): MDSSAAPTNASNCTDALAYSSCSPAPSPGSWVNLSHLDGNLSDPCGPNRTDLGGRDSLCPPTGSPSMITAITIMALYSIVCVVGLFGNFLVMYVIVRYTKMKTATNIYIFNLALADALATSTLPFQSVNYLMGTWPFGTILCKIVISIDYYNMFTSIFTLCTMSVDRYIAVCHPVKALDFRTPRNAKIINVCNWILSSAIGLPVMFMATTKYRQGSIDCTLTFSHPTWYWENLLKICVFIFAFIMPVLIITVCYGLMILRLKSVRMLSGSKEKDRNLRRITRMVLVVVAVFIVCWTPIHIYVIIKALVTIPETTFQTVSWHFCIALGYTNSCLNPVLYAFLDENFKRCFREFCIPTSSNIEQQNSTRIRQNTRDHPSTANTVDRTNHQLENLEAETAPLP
T7 sequence (P08908 whole entry): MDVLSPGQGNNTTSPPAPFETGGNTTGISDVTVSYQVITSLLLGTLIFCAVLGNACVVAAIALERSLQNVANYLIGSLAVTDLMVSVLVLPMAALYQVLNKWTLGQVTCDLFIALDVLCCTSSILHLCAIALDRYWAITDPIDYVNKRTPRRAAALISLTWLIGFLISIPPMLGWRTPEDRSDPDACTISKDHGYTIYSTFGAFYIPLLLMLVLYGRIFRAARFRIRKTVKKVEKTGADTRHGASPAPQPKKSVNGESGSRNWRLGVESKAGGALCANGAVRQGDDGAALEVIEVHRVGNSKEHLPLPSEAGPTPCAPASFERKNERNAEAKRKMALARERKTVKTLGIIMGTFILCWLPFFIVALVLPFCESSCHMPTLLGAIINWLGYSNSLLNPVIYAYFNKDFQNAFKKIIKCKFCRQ
T8 sequence (P35367 whole entry): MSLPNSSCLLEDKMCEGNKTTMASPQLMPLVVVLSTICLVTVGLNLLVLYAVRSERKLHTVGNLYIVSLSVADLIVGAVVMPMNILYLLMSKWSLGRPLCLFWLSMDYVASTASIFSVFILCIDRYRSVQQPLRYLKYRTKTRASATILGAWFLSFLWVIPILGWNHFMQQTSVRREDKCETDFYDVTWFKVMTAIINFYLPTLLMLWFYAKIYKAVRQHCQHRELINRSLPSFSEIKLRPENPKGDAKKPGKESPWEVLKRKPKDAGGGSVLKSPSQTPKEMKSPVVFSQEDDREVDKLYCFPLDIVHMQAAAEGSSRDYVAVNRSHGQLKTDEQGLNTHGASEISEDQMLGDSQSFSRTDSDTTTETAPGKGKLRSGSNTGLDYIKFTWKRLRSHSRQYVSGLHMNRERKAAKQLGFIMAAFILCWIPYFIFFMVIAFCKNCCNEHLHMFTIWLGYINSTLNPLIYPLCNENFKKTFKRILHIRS
T9 sequence (P07550 whole entry): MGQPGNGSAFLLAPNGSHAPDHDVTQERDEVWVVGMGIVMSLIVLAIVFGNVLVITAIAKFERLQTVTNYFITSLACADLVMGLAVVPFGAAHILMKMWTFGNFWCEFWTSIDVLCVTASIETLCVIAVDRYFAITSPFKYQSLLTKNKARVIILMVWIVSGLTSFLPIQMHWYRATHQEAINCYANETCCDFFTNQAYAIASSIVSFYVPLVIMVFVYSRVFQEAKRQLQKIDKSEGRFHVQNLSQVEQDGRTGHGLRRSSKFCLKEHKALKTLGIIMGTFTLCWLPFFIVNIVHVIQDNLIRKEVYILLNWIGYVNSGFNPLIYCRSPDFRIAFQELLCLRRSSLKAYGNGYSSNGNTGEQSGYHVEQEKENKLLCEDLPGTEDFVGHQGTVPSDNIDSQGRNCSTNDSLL
T1 sequence (P28223 whole entry): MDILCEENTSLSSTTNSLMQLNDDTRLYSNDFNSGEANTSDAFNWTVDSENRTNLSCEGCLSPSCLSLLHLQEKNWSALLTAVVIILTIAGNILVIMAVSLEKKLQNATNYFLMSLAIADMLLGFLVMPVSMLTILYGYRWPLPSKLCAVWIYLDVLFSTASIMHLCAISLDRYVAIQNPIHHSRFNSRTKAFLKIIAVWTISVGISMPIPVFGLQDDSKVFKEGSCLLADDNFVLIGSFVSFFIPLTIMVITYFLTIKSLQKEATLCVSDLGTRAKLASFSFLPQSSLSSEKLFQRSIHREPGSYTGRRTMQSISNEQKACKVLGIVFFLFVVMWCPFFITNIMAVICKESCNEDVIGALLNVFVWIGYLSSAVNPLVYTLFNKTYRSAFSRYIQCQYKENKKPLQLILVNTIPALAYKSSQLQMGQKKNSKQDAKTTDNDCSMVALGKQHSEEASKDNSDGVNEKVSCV
T4 sequence (Q14432 whole entry): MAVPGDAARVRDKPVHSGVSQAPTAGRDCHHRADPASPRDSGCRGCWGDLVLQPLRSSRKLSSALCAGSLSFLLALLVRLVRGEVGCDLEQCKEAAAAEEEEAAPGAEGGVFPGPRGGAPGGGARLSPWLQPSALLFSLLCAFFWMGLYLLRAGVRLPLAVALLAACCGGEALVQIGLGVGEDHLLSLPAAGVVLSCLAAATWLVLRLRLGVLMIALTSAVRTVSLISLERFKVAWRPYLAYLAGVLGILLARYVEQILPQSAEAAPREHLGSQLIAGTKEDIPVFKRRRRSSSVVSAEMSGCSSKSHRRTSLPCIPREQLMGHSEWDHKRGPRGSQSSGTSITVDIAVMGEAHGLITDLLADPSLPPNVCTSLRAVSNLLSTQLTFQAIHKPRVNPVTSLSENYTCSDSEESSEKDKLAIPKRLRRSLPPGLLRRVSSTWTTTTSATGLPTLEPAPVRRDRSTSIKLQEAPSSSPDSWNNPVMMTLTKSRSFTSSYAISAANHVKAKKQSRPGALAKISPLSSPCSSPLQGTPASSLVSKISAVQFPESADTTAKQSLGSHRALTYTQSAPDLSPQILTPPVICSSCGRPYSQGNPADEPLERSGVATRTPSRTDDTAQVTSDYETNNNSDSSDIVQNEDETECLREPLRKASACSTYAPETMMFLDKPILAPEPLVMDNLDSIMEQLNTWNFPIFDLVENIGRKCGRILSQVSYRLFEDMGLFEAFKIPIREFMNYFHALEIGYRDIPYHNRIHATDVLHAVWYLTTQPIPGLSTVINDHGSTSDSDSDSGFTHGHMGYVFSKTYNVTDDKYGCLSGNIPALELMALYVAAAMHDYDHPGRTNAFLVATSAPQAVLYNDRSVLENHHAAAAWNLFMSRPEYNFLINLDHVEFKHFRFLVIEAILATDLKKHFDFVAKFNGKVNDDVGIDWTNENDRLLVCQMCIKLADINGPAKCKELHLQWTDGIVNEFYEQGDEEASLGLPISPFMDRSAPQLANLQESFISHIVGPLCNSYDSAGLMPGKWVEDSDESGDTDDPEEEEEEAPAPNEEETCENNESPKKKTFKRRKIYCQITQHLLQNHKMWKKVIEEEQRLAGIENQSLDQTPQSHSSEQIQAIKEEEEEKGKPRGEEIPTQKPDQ

Structure (SMILES): CC1(C)C(/C=C/C2=C(Oc3ccc(CCC(=O)NCCCC[C@@H]4NC(=O)[C@@H](Cc5ccc(O)cc5)NC(=O)[C@H](CC(=O)O)NC(=O)CNC(=O)[C@H](CCCNC(=N)N)NC4=O)cc3)C(=C/C=C3/N(CCC[N+](C)(C)C)c4ccc(S(=O)(=O)O)cc4C3(C)C)/CCC2)=[N+](CCC[N+](C)(C)C)c2ccc(S(=O)(=O)O)cc21 [cRGD-ZW800-1]
- inhibition at 10 µM (Serotonin 5-HT2A; [3]): -9%
- remaining activity at 10 µM (Serotonin 5-HT2A; [4]): 109%
- decrease of fluorescence intensity of tumors at 4 h compared to 0.5 h post injection (MCF-7 breast tumors): 61% ± 8%
- decrease of fluorescence intensity of tumors at 24 h compared to 0.5 h post injection (MCF-7 breast tumors): 77% ± 4%
- TBR at 4 h post injection, with skin (MCF-7 breast tumors; single mouse with 2 tumors): 1.5 ± 0.1
- TBR at 4 h post injection, skin removed (MCF-7 breast tumors; single mouse with 2 tumors, p = 0.02): 3.0 ± 0.3
- inhibition at 10 µM [1, 3]: -11%
- remaining activity at 10 µM [1, 4]: 111%
- reduction of fluorescence signal by unlabeled cRGD (HT-29 cells): 32%
- inhibition at 10 µM [2, 3]: -8%
- remaining activity at 10 µM [2, 4]: 108%
- inhibition at 10 µM (PDE3A; 10 μM cRGD-ZW800-1, format H, performed twice, read-out: % Inhibition of Control Specific Binding): -12%
- remaining activity at 10 µM (PDE3A; [4]): 112%
- inhibition at 10 µM (Opioid µ (MOP); [3]): 10%
- remaining activity at 10 µM (Opioid µ (MOP); [4]): 90.3%
- inhibition at 10 µM (Opioid δ (DOP); [3]): 14%
- remaining activity at 10 µM (Opioid δ (DOP); [4]): 85.5%
- mean TBR (OSC-19 oral tumors): 5.4 ± 1.1
- inhibition at 10 µM (Serotonin 5-HT1A; [3]): 9%
- remaining activity at 10 µM (Serotonin 5-HT1A; [4]): 90.9%
- inhibition at 10 µM (Histamine H1; read-out: % Inhibition of Control Specific Binding): -5%
- remaining activity at 10 µM (Histamine H1; read-out: % of Control Specific Binding Mean): 105%
- inhibition at 10 µM (Adrenergic β2; [3]): 5%
- remaining activity at 10 µM (Adrenergic β2; [4]): 95%
